Measurements reported in patent publication US20260000692A1, “Substituted N-(Pyridin-2-yl)Acetamide Derivatives as CDK12/13 Inhibitors” (Aurigene Oncology Limited, priority 2022, published 2026).

Target: CDK12 (Homo sapiens, UniProt Q9NYV4)
Test: Biochemical assay for CDK12 (LANCE TR-FRET, IC50 determination)
Conditions: for IC50: CDK12, IC50 class, read-out: IC50 μM (in range); for inhibition at 10 µM: read-out: CDK12 % Inhibition @ 10 μM; for inhibition at 2 µM: compound at 2 μM (stated in the cell, not the 10 μM of the column head)
Method: Biochemical Assay for CDK12 (IC50 Determination):
The inhibitory activity of the test compounds was assessed by the LANCE TR-FRET assay, which detects the ATP-dependent phosphorylation of an ULight-4E-BP1 (Thr37/Thr46) substrate peptide (100 nM) by CDK12 (30 nM). Briefly, the enzyme reaction was run in reaction buffer (25 mM HEPES (pH 7.5), 10 mM MgCl2, […], 0.01% Triton x, 1 mM DTT). The assay was performed in 384-well plate format. The end concentration of the ATP substrate was […], and that of the ULight-4E-BP1 (Thr37/Thr46) substrate peptide was 100 nM, and of CDK12 was 30 nM. Pre-incubation of the compound and enzyme was performed for 60 min at room temperature. After 60 min incubation at room temperature, the reaction was terminated by the addition of 40 mM EDTA and 0.5 nM Eu-labeled anti-phospho-eIF4E-binding protein (Thr37/46) antibody in LANCE detection buffer. Time-resolved fluorescence (excitation, 320 nm; emission donor, 615 nm; emission acceptor, 665 nm) was monitored by using 2030 multilabel reader Victor5 (PerkinElmer). The Fluorescence emission of the samples were measured and the ratio was plotted against the compound concentration to generate the dose response curve. The IC50 values were derived by fitting a sigmoidal dose-response curve to a plot of assay readout over inhibitor concentration. All fits were computed with the program Prism 5.03 (Graph Pad Software, San Diego, CA). The % inhibition values at […] were calculated with respect to enzyme activity.

CDK12, sequence (Q9NYV4 whole entry): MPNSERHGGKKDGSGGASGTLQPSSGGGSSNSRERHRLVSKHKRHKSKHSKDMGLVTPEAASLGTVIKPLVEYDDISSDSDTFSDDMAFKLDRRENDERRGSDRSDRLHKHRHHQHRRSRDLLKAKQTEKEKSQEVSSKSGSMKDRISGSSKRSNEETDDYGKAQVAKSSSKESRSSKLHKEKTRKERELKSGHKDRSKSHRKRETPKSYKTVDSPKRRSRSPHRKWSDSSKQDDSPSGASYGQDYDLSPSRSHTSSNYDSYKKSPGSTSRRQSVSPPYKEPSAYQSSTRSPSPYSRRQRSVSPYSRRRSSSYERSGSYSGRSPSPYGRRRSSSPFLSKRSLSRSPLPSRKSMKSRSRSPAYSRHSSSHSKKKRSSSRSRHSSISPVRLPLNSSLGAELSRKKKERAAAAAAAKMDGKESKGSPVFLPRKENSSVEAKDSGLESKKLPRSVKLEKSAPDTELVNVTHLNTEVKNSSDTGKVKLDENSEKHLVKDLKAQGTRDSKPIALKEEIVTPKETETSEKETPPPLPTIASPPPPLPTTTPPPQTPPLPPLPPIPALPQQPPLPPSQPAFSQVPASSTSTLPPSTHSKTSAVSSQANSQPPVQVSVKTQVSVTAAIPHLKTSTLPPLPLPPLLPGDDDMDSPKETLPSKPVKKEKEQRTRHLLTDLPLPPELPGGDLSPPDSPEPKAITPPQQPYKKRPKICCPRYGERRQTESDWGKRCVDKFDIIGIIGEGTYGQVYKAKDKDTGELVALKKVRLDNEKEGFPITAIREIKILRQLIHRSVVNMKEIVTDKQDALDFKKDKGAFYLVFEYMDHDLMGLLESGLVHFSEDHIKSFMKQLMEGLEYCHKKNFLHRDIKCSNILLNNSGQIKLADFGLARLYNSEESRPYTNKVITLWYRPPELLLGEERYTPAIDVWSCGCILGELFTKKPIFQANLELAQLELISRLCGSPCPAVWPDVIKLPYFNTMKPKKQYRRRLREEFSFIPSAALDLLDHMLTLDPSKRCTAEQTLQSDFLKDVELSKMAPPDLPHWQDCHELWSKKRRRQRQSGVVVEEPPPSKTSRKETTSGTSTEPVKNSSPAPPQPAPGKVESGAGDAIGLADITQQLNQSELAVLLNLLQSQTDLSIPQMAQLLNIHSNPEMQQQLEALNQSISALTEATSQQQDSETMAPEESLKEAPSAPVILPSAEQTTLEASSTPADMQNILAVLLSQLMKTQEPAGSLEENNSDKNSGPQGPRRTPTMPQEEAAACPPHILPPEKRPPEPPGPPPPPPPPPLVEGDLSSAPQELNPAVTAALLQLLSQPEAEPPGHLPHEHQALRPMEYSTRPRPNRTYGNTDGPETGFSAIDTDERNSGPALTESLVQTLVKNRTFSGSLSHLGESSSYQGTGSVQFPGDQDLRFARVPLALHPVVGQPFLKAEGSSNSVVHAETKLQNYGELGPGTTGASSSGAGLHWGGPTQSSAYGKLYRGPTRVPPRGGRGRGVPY
CDK12, sequence (O75909 whole entry partner): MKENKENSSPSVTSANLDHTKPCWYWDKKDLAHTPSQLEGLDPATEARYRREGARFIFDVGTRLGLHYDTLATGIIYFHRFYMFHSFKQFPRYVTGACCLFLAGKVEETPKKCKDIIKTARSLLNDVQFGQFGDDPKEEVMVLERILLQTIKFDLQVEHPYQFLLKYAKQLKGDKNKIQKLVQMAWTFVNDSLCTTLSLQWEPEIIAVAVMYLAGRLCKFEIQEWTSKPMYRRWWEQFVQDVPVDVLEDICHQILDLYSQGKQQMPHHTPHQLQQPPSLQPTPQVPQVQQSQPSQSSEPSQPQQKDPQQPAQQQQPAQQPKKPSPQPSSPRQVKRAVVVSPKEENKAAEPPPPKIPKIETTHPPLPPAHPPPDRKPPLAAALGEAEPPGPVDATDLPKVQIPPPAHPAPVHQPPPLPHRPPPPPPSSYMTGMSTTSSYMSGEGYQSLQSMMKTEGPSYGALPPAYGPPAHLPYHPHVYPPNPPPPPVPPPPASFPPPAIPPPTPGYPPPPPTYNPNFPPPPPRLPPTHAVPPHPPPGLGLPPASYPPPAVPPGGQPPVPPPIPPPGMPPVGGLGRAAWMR

IC50	inhibition at 10 µM (compound at 10 μM)	CDK12 % Inhibition @ 10 μM (compound at 10 μM, 10 µM)	inhibition at 2 µM	Structure (SMILES)
0.01 to 0.1 µM	83%	–	–	N#Cc1ncc(-c2ccc(CC(=O)Nc3cc(O[C@@H]4CCOC4)c(Cl)cn3)cn2)cn1 [Compound 150, (R)-N-(5-chloro-4-((tetrahydrofuran-3-yl)oxy)pyridin-2-yl)-2-(6-(2-cyanopyrimidin-5-yl)pyridin-3-yl)acetamide]
> 0.1 µM	82%	–	–	COc1cc(NC(=O)Cc2ccc(-c3cccc(C#N)c3)nc2)ncc1Cl [Compound 189, N-(5-chloro-4-methoxypyridin-2-yl)-2-(6-(3-cyanophenyl)pyridin-3-yl)acetamide]
0.01 to 0.1 µM	89%	–	–	CNC(=O)[C@H](C)Oc1cc(NC(=O)Cc2ccc(-c3ccc(C#N)nc3)nc2)ncc1Cl [Compound 147, (S)-2-((5-chloro-2-(2-(6′-cyano-[2,3′-bipyridin]-5-yl)acetamido)pyridin-4-yl)oxy)-N-methylpropanamide]
0.01 to 0.1 µM	92%	–	–	COc1cc(NC(=O)Cc2ccc(C3=CCCN(C#N)C3)cc2F)ncc1Cl [Compound 113, N-(5-chloro-4-methoxypyridin-2-yl)-2-(4-(1-cyano-1,2,5,6-tetrahydropyridin-3-yl)-2-fluorophenyl)acetamide]
–	57%	–	–	COc1cc(NC(=O)C(C)(C)c2ccc(C3=CCCN(C#N)C3)nc2)ncc1Cl [Compound 110, N-(5-chloro-4-methoxypyridin-2-yl)-2-(1′-cyano-1′,2′,5′,6′-tetrahydro-[2,3′-bipyridin]-5-yl)-2-methylpropanamide]
> 0.1 µM	–	–	–	COc1cc(NC(=O)Cc2ccc(-c3cccc(C#N)n3)cc2)ncc1Cl [Compound 152, N-(5-chloro-4-methoxypyridin-2-yl)-2-(4-(6-cyanopyridin-2-yl)phenyl)acetamide]
0.01 to 0.1 µM	92%	–	–	CNC(=O)C(C)Oc1cc(NC(=O)Cc2ccc(-c3ccc(C#N)nc3)nc2)ncc1Cl (stereo not drawn) [Compound 143, 2-((5-chloro-2-(2-(6′-cyano-[2,3′-bipyridin]-5-yl)acetamido)pyridin-4-yl)oxy)-N-methylpropanamide]
0.01 to 0.1 µM	–	77%	–	N#CN1CCCC(c2ccc(CC(=O)Nc3cc(O[C@@H]4CCOC4)c(Cl)cn3)cn2)C1 (single isomer, unassigned) [Compound 94]
< 0.01 µM	82%	–	–	COc1cc(NC(=O)Cc2cnc(C3CCN(C#N)CC3)c(OC)c2)ncc1Cl [Compound 121, N-(5-chloro-4-methoxypyridin-2-yl)-2-(6-(1-cyanopiperidin-4-yl)-5-methoxypyridin-3-yl)acetamide]
0.01 to 0.1 µM	86%	–	–	COc1cc(NC(=O)Cc2ccc(C3=CCN(C#N)CC3)cn2)ncc1Cl [Compound 127, N-(5-chloro-4-methoxypyridin-2-yl)-2-(1′-cyano-1′,2′,3′,6′-tetrahydro-[3,4′-bipyridin]-6-yl)acetamide]
> 0.1 µM	–	–	70%	COc1cc(NC(=O)Cc2ccc(-c3ccc(C)c(C#N)n3)nc2)ncc1Cl [Compound 158, N-(5-chloro-4-methoxypyridin-2-yl)-2-(6′-cyano-5′-methyl-[2,2′-bipyridin]-5-yl)acetamide]
0.01 to 0.1 µM	–	–	90%	COc1cc(NC(=O)Cc2ccc(-c3cc(C)cc(C#N)n3)nc2)ncc1Cl [Compound 159, N-(5-chloro-4-methoxypyridin-2-yl)-2-(6′-cyano-4′-methyl-[2,2′-bipyridin]-5-yl)acetamide]
0.01 to 0.1 µM	92%	–	–	CNC(=O)C(C)Oc1cc(NC(=O)Cc2ccc(-c3ccnc(C#N)c3)nc2)ncc1Cl (stereo not drawn) [Compound 144, 2-((5-chloro-2-(2-(2′-cyano-[2,4′-bipyridin]-5-yl)acetamido)pyridin-4-yl)oxy)-N-methylpropanamide]

Continued, compound first:

Structure (SMILES)	IC50	inhibition at 10 µM (compound at 10 μM)	CDK12 % Inhibition @ 10 μM (compound at 10 μM, 10 µM)	inhibition at 2 µM
N#CN1CCC=C(c2ccc(CC(=O)Nc3cc(OC4CCCOC4)c(Cl)cn3)cn2)C1 (single isomer, unassigned) [Compound 44, N-(5-chloro-4-((tetrahydro-2H-pyran-3-yl)oxy)pyridin-2-yl)-2-(1′-cyano-1′,2′,5′,6′-tetrahydro-[2,3′-bipyridin]-5-yl)acetamide]	< 0.01 µM	89%	–	–
N#CN1CCC=C(c2ccc(CC(=O)Nc3cc(O[C@H]4CCOC4)c(Cl)cn3)cn2)C1 [Compound 41, (S)-N-(5-chloro-4-((tetrahydrofuran-3-yl)oxy)pyridin-2-yl)-2-(1′-cyano-1′,2′,5′,6′-tetrahydro-[2,3′-bipyridin]-5-yl)acetamide]	< 0.01 µM	96%	–	–
N#CN1CC=C(c2ccc(CC(=O)Nc3ccc(Cl)cn3)cn2)C1 [Compound 6, N-(5-chloropyridin-2-yl)-2-(6-(1-cyano-2,5-dihydro-1H-pyrrol-3-yl)pyridin-3-yl)acetamide]	< 0.01 µM	78%	–	–
CC(CN(C)C)Oc1cc(NC(=O)Cc2ccc(C3=CCN(C#N)CC3)nc2)ncc1Cl (stereo not drawn) [Compound 31, N-(5-chloro-4-((1-(dimethylamino)propan-2-yl)oxy)pyridin-2-yl)-2-(1′-cyano-1′,2′,3′,6′-tetrahydro-[2,4′-bipyridin]-5-yl)acetamide]	< 0.01 µM	89%	–	–
COc1cc(NC(=O)C(C)c2ccc(C3=CCCN(C#N)C3)nc2)ncc1Cl (stereo not drawn) [Compound 48, N-(5-chloro-4-methoxypyridin-2-yl)-2-(1′-cyano-1′,2′,5′,6′-tetrahydro-[2,3′-bipyridin]-5-yl)propanamide]	< 0.01 µM	90%	–	–
N#CN1CC=C(c2ccc(CC(=O)Nc3cc(OC4CCOCC4)c(Cl)cn3)cn2)CC1 [Compound 19, N-(5-chloro-4-((tetrahydro-2H-pyran-4-yl)oxy)pyridin-2-yl)-2-(1′-cyano-1′,2′,3′,6′-tetrahydro-[2,4′-bipyridin]-5-yl)acetamide]	< 0.01 µM	91%	–	–
CN1CCC[C@H](Oc2cc(NC(=O)Cc3ccc(C4=CCCN(C#N)C4)nc3)ncc2Cl)C1 [Compound 47, (S)-N-(5-chloro-4-((1-methylpiperidin-3-yl)oxy)pyridin-2-yl)-2-(1′-cyano-1′,2′,5′,6′-tetrahydro-[2,3′-bipyridin]-5-yl)acetamide]	0.01 to 0.1 µM	85%	–	–
N#CN1CCCC(c2ccc(CC(=O)Nc3cc(O[C@@H]4CCOC4)c(Cl)cn3)cn2)C1 (stereo partly drawn) [Compound 92, N-(5-chloro-4-(((R)-tetrahydrofuran-3-yl)oxy)pyridin-2-yl)-2-(6-(1-cyanopiperidin-3-yl)pyridin-3-yl)acetamide]	0.01 to 0.1 µM	90%	–	–
COc1cc(NC(=O)Cc2ccc(C3=CCN(C#N)CC3)nc2)ncc1Cl [Compound 8, N-(5-chloro-4-methoxypyridin-2-yl)-2-(1′-cyano-1′,2′,3′,6′-tetrahydro-[2,4′-bipyridin]-5-yl)acetamide]	< 0.01 µM	82%	–	–
CCOc1cc(NC(=O)Cc2ccc(C3=CCN(C#N)CC3)nc2)ncc1Cl [Compound 20, N-(5-chloro-4-ethoxypyridin-2-yl)-2-(1′-cyano-1′,2′,3′,6′-tetrahydro-[2,4′-bipyridin]-5-yl)acetamide]	< 0.01 µM	109%	–	–
CNC(=O)C(C)Oc1cc(NC(=O)Cc2ccc(C3=CCN(C#N)CC3)nc2)ncc1Cl (single isomer, unassigned) [Compound 2, 2-((5-chloro-2-(2-(1′-cyano-1′,2′,3′,6′-tetrahydro-[2,4′-bipyridin]-5-yl)acetamido)pyridin-4-yl)oxy)-N-methylpropanamide]	< 0.01 µM	90%	–	–
COC[C@H](C)Oc1cc(NC(=O)Cc2ccc(C3=CCCN(C#N)C3)nc2)ncc1Cl [Compound 35, (S)-N-(5-chloro-4-((1-methoxypropan-2-yl)oxy)pyridin-2-yl)-2-(1′-cyano-1′,2′,5′,6′-tetrahydro-[2,3′-bipyridin]-5-yl)acetamide]	< 0.01 µM	95%	–	–
CN1CC[C@@H](Oc2cc(NC(=O)Cc3ccc(C4=CCCN(C#N)C4)nc3)ncc2Cl)C1 [Compound 38, (R)-N-(5-chloro-4-((1-methylpyrrolidin-3-yl)oxy)pyridin-2-yl)-2-(1′-cyano-1′,2′,5′,6′-tetrahydro-[2,3′-bipyridin]-5-yl)acetamide]	< 0.01 µM	88%	–	–
CN1CCC(Oc2cc(NC(=O)Cc3ccc(C4=CCCN(C#N)C4)nc3)ncc2Cl)CC1 [Compound 37, N-(5-chloro-4-((1-methylpiperidin-4-yl)oxy)pyridin-2-yl)-2-(1′-cyano-1′,2′,5′,6′-tetrahydro-[2,3′-bipyridin]-5-yl)acetamide]	< 0.01 µM	94%	–	–
COc1cc(NC(=O)Cc2ccc(C3=CCCN(C#N)C3)nc2)ncc1Cl [Compound 34, N-(5-chloro-4-methoxypyridin-2-yl)-2-(1′-cyano-1′,2′,5′,6′-tetrahydro-[2,3′-bipyridin]-5-yl)acetamide]	< 0.01 µM	91%	–	–
